According to patent US20260242330A1, “USE OF AN AMANTADINE MONONITRATE COMPOUND IN MANUFACTURE OF A MEDICAMENT FOR THE PREVENTION AND TREATMENT OF HYPERTENSION” (GUANGZHOU MAGPIE PHARMACEUTICALS CO., LTD., priority 2022, published 2026):

Test system: blood pressure of subjects
Assay: Effect of single administration of MN-08 on blood pressure of subjects (clinical trial)
Assay type: in vivo, human
Source text: All subjects in the following embodiments have signed informed consent forms, which comply with medical ethics regulations. According to the relevant provisions of Chinese Guidelines for the Prevention and Treatment of Hypertension (2018 Revision), the values measured for hypertension are the average blood pressure measured three times on a different day without the use of antihypertensive drugs. Therefore, in this embodiment, the baseline blood pressure of the subjects before administration is set as the average blood pressure measured at three different times: screening period, occupancy period, and 1 hour before administration, as shown in Tables 1 to 3.
In the clinical trial of amantadine mononitrate compound MN-08, it is investigated the effect of MN-08 on blood pressure in subjects. The experiments were carried out to analyze the blood pressure status of subjects in both the single dose and multiple dose groups.
During a single administration, each dose group is required to fast for at least 10 hours before administration, without water deprivation overnight, and on the day of administration, the medication is taken on an empty stomach at around 8 a.m., with 240 mL of water administered.

CCC12CC3CC(N)(C1)CC(CO[N+](=O)[O-])(C3)C2 (centres unmarked) [MN-08]
diastolic pressure reduced by (6 mg single dose, at 6 hours): 17.1% | systolic pressure reduced by (6 mg single dose, at 6 hours): 13.2% | DP (Subject 1, 12 mg single dose, 6 hrs after adm. (D 1), baseline 77 mmHg): 64 mmHg | SP (Subject 1, 12 mg single dose, 6 hrs after adm. (D 1), baseline 122 mmHg): 104 mmHg | DP (reduce amplitude) (Subject 1, 12 mg single dose, 6 hrs after adm. (D 1), vs baseline 77 mmHg): −16.9% | SP (reduce amplitude) (Subject 1, 12 mg single dose, 6 hrs after adm. (D 1), vs baseline 122 mmHg): −14.8% | DP (Subject 1, 12 mg single dose, 12 hrs after adm. (D 1), baseline 77 mmHg): 60 mmHg | SP (Subject 1, 12 mg single dose, 12 hrs after adm. (D 1), baseline 122 mmHg): 109 mmHg | DP (reduce amplitude) (Subject 1, 12 mg single dose, 12 hrs after adm. (D 1), vs baseline 77 mmHg): −22.1% | SP (reduce amplitude) (Subject 1, 12 mg single dose, 12 hrs after adm. (D 1), vs baseline 122 mmHg): −10.7% | DP (Subject 2, 42 mg single dose, 6 hrs after adm. (D 1), baseline 79 mmHg): 63 mmHg | SP (Subject 2, 42 mg single dose, 6 hrs after adm. (D 1), baseline 113 mmHg): 96 mmHg | DP (reduce amplitude) (Subject 2, 42 mg single dose, 6 hrs after adm. (D 1), vs baseline 79 mmHg): −20.3% | SP (reduce amplitude) (Subject 2, 42 mg single dose, 6 hrs after adm. (D 1), vs baseline 113 mmHg): −15.0% | DP (Subject 2, 42 mg single dose, 12 hrs after adm. (D 1), baseline 79 mmHg): 69 mmHg | SP (Subject 2, 42 mg single dose, 12 hrs after adm. (D 1), baseline 113 mmHg): 96 mmHg | DP (reduce amplitude) (Subject 2, 42 mg single dose, 12 hrs after adm. (D 1), vs baseline 79 mmHg): −12.7% | SP (reduce amplitude) (Subject 2, 42 mg single dose, 12 hrs after adm. (D 1), vs baseline 113 mmHg): −15.0% | DP (Subject 3, 42 mg single dose, 6 hrs after adm. (D 1), baseline 85 mmHg): 72 mmHg | SP (Subject 3, 42 mg single dose, 6 hrs after adm. (D 1), baseline 124 mmHg): 118 mmHg | DP (reduce amplitude) (Subject 3, 42 mg single dose, 6 hrs after adm. (D 1), vs baseline 85 mmHg): −15.3% | SP (reduce amplitude) (Subject 3, 42 mg single dose, 6 hrs after adm. (D 1), vs baseline 124 mmHg): −4.8% | DP (Subject 3, 42 mg single dose, 12 hrs after adm. (D 1), baseline 85 mmHg): 61 mmHg | SP (Subject 3, 42 mg single dose, 12 hrs after adm. (D 1), baseline 124 mmHg): 98 mmHg | DP (reduce amplitude) (Subject 3, 42 mg single dose, 12 hrs after adm. (D 1), vs baseline 85 mmHg): −28.2% | SP (reduce amplitude) (Subject 3, 42 mg single dose, 12 hrs after adm. (D 1), vs baseline 124 mmHg): −21.0% | DP (Subject 4, 60 mg single dose, 6 hrs after adm. (D 1), baseline 78 mmHg): 58 mmHg | SP (Subject 4, 60 mg single dose, 6 hrs after adm. (D 1), baseline 107 mmHg): 93 mmHg | DP (reduce amplitude) (Subject 4, 60 mg single dose, 6 hrs after adm. (D 1), vs baseline 78 mmHg): −25.6% | SP (reduce amplitude) (Subject 4, 60 mg single dose, 6 hrs after adm. (D 1), vs baseline 107 mmHg): −13.1% | DP (Subject 4, 60 mg single dose, 12 hrs after adm. (D 1), baseline 78 mmHg): 58 mmHg | SP (Subject 4, 60 mg single dose, 12 hrs after adm. (D 1), baseline 107 mmHg): 90 mmHg | DP (reduce amplitude) (Subject 4, 60 mg single dose, 12 hrs after adm. (D 1), vs baseline 78 mmHg): −25.6% | SP (reduce amplitude) (Subject 4, 60 mg single dose, 12 hrs after adm. (D 1), vs baseline 107 mmHg): −15.9% | DP (Subject 5, 60 mg single dose, 6 hrs after adm. (D 1), baseline 73 mmHg): 62 mmHg | SP (Subject 5, 60 mg single dose, 6 hrs after adm. (D 1), baseline 111 mmHg): 93 mmHg | DP (reduce amplitude) (Subject 5, 60 mg single dose, 6 hrs after adm. (D 1), vs baseline 73 mmHg): −15.1% | SP (reduce amplitude) (Subject 5, 60 mg single dose, 6 hrs after adm. (D 1), vs baseline 111 mmHg): −16.2% | DP (Subject 5, 60 mg single dose, 12 hrs after adm. (D 1), baseline 73 mmHg): 61 mmHg | SP (Subject 5, 60 mg single dose, 12 hrs after adm. (D 1), baseline 111 mmHg): 95 mmHg | DP (reduce amplitude) (Subject 5, 60 mg single dose, 12 hrs after adm. (D 1), vs baseline 73 mmHg): −16.4% | SP (reduce amplitude) (Subject 5, 60 mg single dose, 12 hrs after adm. (D 1), vs baseline 111 mmHg): −14.4% | DP (Subject 6, 78 mg single dose, 6 hrs after adm. (D 1), baseline 67 mmHg): 61 mmHg | SP (Subject 6, 78 mg single dose, 6 hrs after adm. (D 1), baseline 113 mmHg): 103 mmHg | DP (reduce amplitude) (Subject 6, 78 mg single dose, 6 hrs after adm. (D 1), vs baseline 67 mmHg): −9.0% | SP (reduce amplitude) (Subject 6, 78 mg single dose, 6 hrs after adm. (D 1), vs baseline 113 mmHg): −8.8% | DP (Subject 6, 78 mg single dose, 12 hrs after adm. (D 1), baseline 67 mmHg): 54 mmHg | SP (Subject 6, 78 mg single dose, 12 hrs after adm. (D 1), baseline 113 mmHg): 104 mmHg | DP (reduce amplitude) (Subject 6, 78 mg single dose, 12 hrs after adm. (D 1), vs baseline 67 mmHg): −19.4% | SP (reduce amplitude) (Subject 6, 78 mg single dose, 12 hrs after adm. (D 1), vs baseline 113 mmHg): −8.0% | DP (Subject 7, 78 mg single dose, 6 hrs after adm. (D 1), baseline 74 mmHg): 62 mmHg | SP (Subject 7, 78 mg single dose, 6 hrs after adm. (D 1), baseline 106 mmHg): 94 mmHg | DP (reduce amplitude) (Subject 7, 78 mg single dose, 6 hrs after adm. (D 1), vs baseline 74 mmHg): −16.2% | SP (reduce amplitude) (Subject 7, 78 mg single dose, 6 hrs after adm. (D 1), vs baseline 106 mmHg): −11.3% | DP (Subject 7, 78 mg single dose, 12 hrs after adm. (D 1), baseline 74 mmHg): 60 mmHg | SP (Subject 7, 78 mg single dose, 12 hrs after adm. (D 1), baseline 106 mmHg): 102 mmHg | DP (reduce amplitude) (Subject 7, 78 mg single dose, 12 hrs after adm. (D 1), vs baseline 74 mmHg): −18.9% | SP (reduce amplitude) (Subject 7, 78 mg single dose, 12 hrs after adm. (D 1), vs baseline 106 mmHg): −3.8% | DP (Subject 8, 96 mg single dose, 6 hrs after adm. (D 1), baseline 69 mmHg): 51 mmHg | SP (Subject 8, 96 mg single dose, 6 hrs after adm. (D 1), baseline 101 mmHg): 79 mmHg | DP (reduce amplitude) (Subject 8, 96 mg single dose, 6 hrs after adm. (D 1), vs baseline 69 mmHg): −26.1% | SP (reduce amplitude) (Subject 8, 96 mg single dose, 6 hrs after adm. (D 1), vs baseline 101 mmHg): −21.8% | DP (Subject 8, 96 mg single dose, 12 hrs after adm. (D 1), baseline 69 mmHg): 61 mmHg | SP (Subject 8, 96 mg single dose, 12 hrs after adm. (D 1), baseline 101 mmHg): 87 mmHg | DP (reduce amplitude) (Subject 8, 96 mg single dose, 12 hrs after adm. (D 1), vs baseline 69 mmHg): −11.6% | SP (reduce amplitude) (Subject 8, 96 mg single dose, 12 hrs after adm. (D 1), vs baseline 101 mmHg): −13.8% | DP (Subject 9, 96 mg single dose, 6 hrs after adm. (D 1), baseline 78 mmHg): 63 mmHg | SP (Subject 9, 96 mg single dose, 6 hrs after adm. (D 1), baseline 121 mmHg): 105 mmHg | DP (reduce amplitude) (Subject 9, 96 mg single dose, 6 hrs after adm. (D 1), vs baseline 78 mmHg): −19.2% | SP (reduce amplitude) (Subject 9, 96 mg single dose, 6 hrs after adm. (D 1), vs baseline 121 mmHg): −13.2% | DP (Subject 9, 96 mg single dose, 12 hrs after adm. (D 1), baseline 78 mmHg): 68 mmHg | SP (Subject 9, 96 mg single dose, 12 hrs after adm. (D 1), baseline 121 mmHg): 103 mmHg | DP (reduce amplitude) (Subject 9, 96 mg single dose, 12 hrs after adm. (D 1), vs baseline 78 mmHg): −12.8% | SP (reduce amplitude) (Subject 9, 96 mg single dose, 12 hrs after adm. (D 1), vs baseline 121 mmHg): −14.8% | DP (Subject 10, 114 mg single dose, 6 hrs after adm. (D 1), baseline 75 mmHg): 62 mmHg | SP (Subject 10, 114 mg single dose, 6 hrs after adm. (D 1), baseline 115 mmHg): 92 mmHg | DP (reduce amplitude) (Subject 10, 114 mg single dose, 6 hrs after adm. (D 1), vs baseline 75 mmHg): −17.3% | SP (reduce amplitude) (Subject 10, 114 mg single dose, 6 hrs after adm. (D 1), vs baseline 115 mmHg): −20.0% | DP (Subject 10, 114 mg single dose, 12 hrs after adm. (D 1), baseline 75 mmHg): 57 mmHg | SP (Subject 10, 114 mg single dose, 12 hrs after adm. (D 1), baseline 115 mmHg): 90 mmHg | DP (reduce amplitude) (Subject 10, 114 mg single dose, 12 hrs after adm. (D 1), vs baseline 75 mmHg): −24.0% | SP (reduce amplitude) (Subject 10, 114 mg single dose, 12 hrs after adm. (D 1), vs baseline 115 mmHg): −21.7% | DP (Subject 11, 114 mg single dose, 6 hrs after adm. (D 1), baseline 85 mmHg): 68 mmHg | SP (Subject 11, 114 mg single dose, 6 hrs after adm. (D 1), baseline 126 mmHg): 119 mmHg | DP (reduce amplitude) (Subject 11, 114 mg single dose, 6 hrs after adm. (D 1), vs baseline 85 mmHg): −20.0% | SP (reduce amplitude) (Subject 11, 114 mg single dose, 6 hrs after adm. (D 1), vs baseline 126 mmHg): −5.6% | DP (Subject 11, 114 mg single dose, 12 hrs after adm. (D 1), baseline 85 mmHg): 68 mmHg | SP (Subject 11, 114 mg single dose, 12 hrs after adm. (D 1), baseline 126 mmHg): 105 mmHg | DP (reduce amplitude) (Subject 11, 114 mg single dose, 12 hrs after adm. (D 1), vs baseline 85 mmHg): −20.0% | SP (reduce amplitude) (Subject 11, 114 mg single dose, 12 hrs after adm. (D 1), vs baseline 126 mmHg): −16.7% | DP (Subject 12, 132 mg single dose, 6 hrs after adm. (D 1), baseline 78 mmHg): 59 mmHg | SP (Subject 12, 132 mg single dose, 6 hrs after adm. (D 1), baseline 123 mmHg): 120 mmHg | DP (reduce amplitude) (Subject 12, 132 mg single dose, 6 hrs after adm. (D 1), vs baseline 78 mmHg): −24.4% | SP (reduce amplitude) (Subject 12, 132 mg single dose, 6 hrs after adm. (D 1), vs baseline 123 mmHg): −2.4% | DP (Subject 12, 132 mg single dose, 12 hrs after adm. (D 1), baseline 78 mmHg): 60 mmHg | SP (Subject 12, 132 mg single dose, 12 hrs after adm. (D 1), baseline 123 mmHg): 105 mmHg | DP (reduce amplitude) (Subject 12, 132 mg single dose, 12 hrs after adm. (D 1), vs baseline 78 mmHg): −23.1% | SP (reduce amplitude) (Subject 12, 132 mg single dose, 12 hrs after adm. (D 1), vs baseline 123 mmHg): −14.6% | DP (Subject 13, 132 mg single dose, 6 hrs after adm. (D 1), baseline 68 mmHg): 54 mmHg | SP (Subject 13, 132 mg single dose, 6 hrs after adm. (D 1), baseline 106 mmHg): 97 mmHg | DP (reduce amplitude) (Subject 13, 132 mg single dose, 6 hrs after adm. (D 1), vs baseline 68 mmHg): −20.6% | SP (reduce amplitude) (Subject 13, 132 mg single dose, 6 hrs after adm. (D 1), vs baseline 106 mmHg): −8.5% | DP (Subject 13, 132 mg single dose, 12 hrs after adm. (D 1), baseline 68 mmHg): 56 mmHg | SP (Subject 13, 132 mg single dose, 12 hrs after adm. (D 1), baseline 106 mmHg): 96 mmHg | DP (reduce amplitude) (Subject 13, 132 mg single dose, 12 hrs after adm. (D 1), vs baseline 68 mmHg): −17.6% | SP (reduce amplitude) (Subject 13, 132 mg single dose, 12 hrs after adm. (D 1), vs baseline 106 mmHg): −9.4% | effect of a single dose on blood pressure (all dose groups (6, 12, 42, 60, 78, 96, 114, 132 mg), especially diastolic pressure): can reduce the blood pressure
